Where two headings read alike, the source gives them in different places.
Legend:
[1] = targeted dose 60 mg/day, within 10 weeks, binge eating patients; cited from earlier work
rotarod test in mice = settings: male, NMRI, mouse, in vivo, po
Excerpt: The rotarod test is a widely used simple and objective method to detect the side effects affecting motor function in rodents. This method is also capable for sensitive detection of a central muscle relaxant effect, which is a pharmacological feature of both memantine and baclofen (Farkas et al. J. Pharmacol. Toxicol. Methods 52:264-273 2005). However, other CNS side effects (e.g. sleepiness, disturbances in coordination) also impair rotarod performance. Therefore this method was used to assess liability of the combination memantine and baclofen to produce unwanted side effects.
Mice were placed on a rod rotating with a constant speed of 12 rpm. After training, i.e. after habituation to the rotarod three times for 120 seconds on the previous day, the mice are usually able to run on the rod for 120 seconds without falling down. Immediately before the treatment with the test compounds, the mice were tested and only those able to stay on the rod for 120 seconds were involved to the experiment. Test compounds were dissolved in distilled water (vehicle) and administered orally to groups of ten male NMRI mice (20-24 g). One group was treated with vehicle in each experimental session. […] We calculated the mean latency to fall in each group and the percent change relative to the latency in the vehicle group. […]

[2] = mouse diet-induced obesity (DIO) test, weight loss; assay type: in vivo; settings: two weeks, obese C57B16 mice
Protocol: The experiments were performed using a diet-induced obesity (DIO) test. The DIO test is a widely accepted animal model of human obesity well mimicking the development and course of the disease, its comorbidities as well as its response to pharmacological medications (Hariri and Thibault Nutr. Res. Rev. 23:270-299 2010). Young (22-25 g) male C57B16 mice were fed with high-fat diet (e.g. D12492, Research Diets Inc., New Brunswick, N.J., USA), thus these animals became obese compared to mice kept on a control diet. The body weights of control and obese mice were 31.84±0.89 and 45.74±0.78 g, respectively, in the first experiment (n=8 per group, mean±SEM). These values were 30.47±0.58 and 45.38±0.61 g (n=20 per group) in the second experiment, and 27.61±0.34 and 41.00±0.91 (n=8 per group) in the third experiment (Study 2). Then the animals were assigned to different groups and treated with different vehicles or test compounds. Test compounds were dissolved in water and administered per os twice daily in a volume of 10 ml/kg of body weight. The animals were weighed daily during the experiments. The percent weight loss of each animal compared the baseline body weight was calculated at the end of the two-week-long experiment. The average percent weight change of the vehicle group was subtracted from the percent weight change of each animal, thus the vehicle-corrected weight loss was calculated. The statistical evaluation of results included descriptive statistics (mean and standard error). Furthermore, statistical significance of differences between groups was evaluated using one-way or factorial ANOVA test followed by Duncan's post-hoc test. Interactions between different treatments (i.e. combination of drugs) were evaluated using factorial ANOVA test.
Baclofen caused a body weight loss of 3.2%, which was statistically non-significant. […] The doses shown in FIG. 1 were administered per os twice daily. The results are shown as mean±SE of percent vehicle-corrected weight loss. There were no statistical differences between the other three groups. (Number of animals: n=8 per group, except the memantine group, where n=7.)
We have also tested the combination of phentermine and baclofen. In the study investigating the effects of 2.5 mg/kg phentermine and 2 mg/kg baclofen, both drugs decreased the body weight moderately (by 5.4% and 3.6%, respectively). […] There was no significant difference between the groups (including the vehicle group as well). […] Data in FIG. 3 are presented as mean±SE of percent vehicle-corrected weight loss.

[3] = spontaneous horizontal motor activity of mice (LABORAS); assay type: in vivo; settings: 12-hour light phase, C57B16J mice
Excerpt: NMDA receptor antagonists are known to cause dose-dependent behavioral activation in rodents, which is manifested in increased locomotor activity (Sukhanov et al. Behav. Pharmacol. 15:263-271 2004). This behavior may correspond to side effects observed in the clinical practice, such as agitation and restlessness, which are rarely seen with memantine. We have studied the modulating effect of baclofen on the locomotor activity increasing effect of memantine when administered to mice in combination. Groups of male C57B16J mice (25-32 g; Wobe-Harlan, Hungary; 8-10 mice/group) were treated orally with 2 mg/kg baclofen, 2.5 mg/kg memantine or their combination or vehicle (distilled water) twice daily during the light phase of diurnal light-dark cycle. After one day of habituation, the activity of the animals was recorded continuously for 24 hours on the first and 14th day of treatment using an automated behavioral activity measurement system (LABORAS, Metris, Netherlands). However, only the data from the light phase (12 hours) are shown. The animals were housed individually during the whole experiment in their home cages, which enabled the activity recording as well. The mechanical vibrations and gravity related static signals evoked by the movement of the animals were transformed to an electrical signal by the system, and these recorded signals were evaluated off-line by a computer algorithm (Quinn et al. J. Neurosci. Methods 130:83-92 2003). The behavior of the mice was categorized by the software as locomotor activity, immobility, climbing and grooming. […] Statistical analysis was performed using ANOVA followed by Tukey's post hoc test. The statistical significance of effects of drug treatments was calculated compared to vehicle and also compared to other drug-treated groups.

[4] = 30 mg/day, 12 weeks, cited from earlier work
[5] = cited from earlier work
[6] = dose gradually increased to 20 mg/day, 16 obese binge eater patients; cited from earlier work
[7] = recommended dosing regimen; cited from earlier work

NCC(CC(=O)O)c1ccc(Cl)cc1 (racemic) [baclofen]
mean body weight increase [1]: 0.9 kg | ED50 at 60 min (rotarod test in mice): 18.3 ± 3.3 mg/kg | vehicle-corrected body weight loss ([2]; Study 1, first experiment, 2 mg/kg baclofen per os twice daily): 3.2% | vehicle-corrected body weight loss ([2]; Study 2, 2 mg/kg baclofen per os twice daily): 3.6% | horizontal motor activity vs vehicle ([3]; 2 mg/kg baclofen orally twice daily, 14th day of treatment): neither baclofen alone, nor the combination altered the motor activity | horizontal motor activity vs vehicle ([3]; 2 mg/kg baclofen orally twice daily, first day of treatment): neither baclofen alone, nor the combination altered the motor activity | mean body weight loss ([4]; 10 obese patients): 1.7% | participants (out of 10) who lost more than 5% body weight [4]: one

C[C@H]1CNCCc2ccc(Cl)cc21 [lorcaserin]
weight loss relative to baseline ([5]; after 1-year-long treatment): 5.8% | weight loss relative to baseline ([5]; at 12 weeks): 3.5-4%

CC12CC3CC(C)(C1)CC(N)(C3)C2 [memantine]
effect on binge episodes and body weight [6]: decreased the number of binge episodes but not the body weight | side effect rate: dizziness [7]: 0.8% | side effect rate: nausea [7]: 0.9% | side effect rate: restlessness [7]: 1.3% | side effect rate: tiredness [7]: 0.4% | ED50 at 60 min (rotarod test in mice): 16.1 ± 1.7 mg/kg | vehicle-corrected body weight loss ([2]; Study 1, first experiment, 2.5 mg/kg memantine per os twice daily): 0.1% | horizontal motor activity vs vehicle ([3]; 2.5 mg/kg memantine orally twice daily, 14th day of treatment): statistically significantly (p<0.05) increased | horizontal motor activity vs vehicle ([3]; 2.5 mg/kg memantine orally twice daily, first day of treatment): did not reach statistical significance

CC(C)(N)Cc1ccccc1 [phentermine]
vehicle-corrected body weight loss ([2]; Study 2, 2.5 mg/kg phentermine per os twice daily): 5.4%
